Data set [1] has as its target T1, Galanin receptor type 3 (Homo sapiens, UniProt O60755).
T1 sequence (O60755 whole entry): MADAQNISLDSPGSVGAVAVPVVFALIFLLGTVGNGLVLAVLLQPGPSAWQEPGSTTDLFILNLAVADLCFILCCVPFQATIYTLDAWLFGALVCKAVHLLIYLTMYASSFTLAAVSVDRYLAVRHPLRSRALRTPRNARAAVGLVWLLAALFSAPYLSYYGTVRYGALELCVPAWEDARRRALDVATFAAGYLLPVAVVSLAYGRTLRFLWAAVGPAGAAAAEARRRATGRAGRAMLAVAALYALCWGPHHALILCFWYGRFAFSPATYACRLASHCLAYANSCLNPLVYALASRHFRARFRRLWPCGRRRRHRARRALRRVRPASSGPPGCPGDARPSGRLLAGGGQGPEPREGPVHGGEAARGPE
Put plainly: Displacement of [125I]galanin from human GAL3. Background: In a radioligand displacement assay an active substance lowers the binding of a labelled ligand.

Data set [2] concerns the target T2, 5-hydroxytryptamine receptor 4 (Homo sapiens, UniProt Q13639). The data set is described as follows: Binding affinity to human 5HT4.
Data set [3] is described as follows: Drug level in rat plasma at 10 mg/kg, sc after 2 hrs. The format is ADME, organism-based. More on the design: dose 10 mg/kg, route subcutaneous.
For data set [4], the target named is T2, 5-hydroxytryptamine receptor 4. The data set is described as follows: Agonist activity at human 5HT4 upto 10 uM. The format is functional.
Data set [5] can be described thus: Drug level in rat plasma at 10 mg/kg, pp after 2 hrs. In kind it is ADME, organism-based. More on the design: dose 10 mg/kg.
A short description of data set [6]: Drug level in rat brain at 30 mg/kg, ip after 4 hrs. In kind it is ADME, organism-based. More on the design: dose 30 mg/kg, route intraperitoneal. The conditions noted are these: read-out: Drug uptake.
The nature of data set [7]: Drug level in rat brain at 30 mg/kg, ip after 2 hrs. In kind it is ADME, organism-based. Set-up: dose 30 mg/kg, route intraperitoneal. The settings on record: read-out: Drug uptake.
Data set [8] can be described thus: Drug level in rat brain at 10 mg/kg, sc after 2 hrs. In kind it is ADME, organism-based. More on the design: dose 10 mg/kg, route subcutaneous. The conditions noted are these: read-out: Drug uptake.
Data set [9] concerns the target T2, 5-hydroxytryptamine receptor 4. Put plainly: Antagonist activity against human 5HT4 upto 10 uM. In kind it is functional.
Data set [10] is described as follows: Drug level in rat plasma at 30 mg/kg, ip after 4 hrs. More on the design: dose 30 mg/kg, route intraperitoneal. The format is ADME, organism-based.
Data set [11] is described as follows: Drug level in rat plasma at 30 mg/kg, ip after 2 hrs. The format is ADME, organism-based. Set-up: dose 30 mg/kg, route intraperitoneal.

The source made the active and inactive calls. No cut-off for these calls is given here. Some results are limits rather than exact numbers.

Data on 8 compounds can be found in ChEMBL document CHEMBL1138060, “3-arylimino-2-indolones are potent and selective galanin GAL3 receptor antagonists” (J Med Chem, 2006).

Usually Ki stands for the dissociation constant of the complex between target and ligand, obtained from inhibition or displacement. Low values mean tighter binding, high ones weaker binding.

T2 sequence (Q13639 whole entry): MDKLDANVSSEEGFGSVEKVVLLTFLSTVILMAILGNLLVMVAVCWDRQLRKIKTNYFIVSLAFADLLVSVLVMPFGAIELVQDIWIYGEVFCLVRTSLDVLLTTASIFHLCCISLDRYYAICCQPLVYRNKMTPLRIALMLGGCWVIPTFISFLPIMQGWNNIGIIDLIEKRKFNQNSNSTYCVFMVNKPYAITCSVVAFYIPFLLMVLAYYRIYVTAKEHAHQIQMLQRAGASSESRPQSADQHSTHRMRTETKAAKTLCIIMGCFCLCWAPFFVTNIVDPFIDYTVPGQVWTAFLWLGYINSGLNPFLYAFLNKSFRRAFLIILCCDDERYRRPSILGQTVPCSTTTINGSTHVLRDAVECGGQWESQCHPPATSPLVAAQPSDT

As for `O=C1Nc2ccccc2/C1=N\c1cccc(Cl)c1Cl`, the affinity in [1] corresponds to a Ki of 437 nM.
`C#CCN1C(=O)/C(=N/c2cccc(C(F)(F)F)c2)c2ccccc21` yielded a Ki in data set [1] of 89 nM.
For `O=C1/C(=N/c2cccc(C(F)(F)F)c2)c2ccccc2N1c1ccccc1`, in data set [2], the affinity corresponds to a Ki of 72 nM. For the same compound, the concentration at 2 h in data set [3] was 990 ng/mL; in [5] it was 90 ng/mL; in [7], 1060 ng/g; in [8], 350 ng/g; in [11], 780 ng/mL. The outcome in data set [4] and in data set [9] was inactive. In addition, the concentration at 4 h in [6] stood at 1210 ng/g; in [10] it was 1680 ng/mL.
The compound `O=C1Nc2ccccc2/C1=N\c1ccc(Cl)cc1` came in with a Ki in data set [1] of 850 nM.
The compound `C=CCN1C(=O)/C(=N/c2ccc(Cl)c(Cl)c2)c2ccccc21` gave an inhibition constant Ki in data set [1] of 150 nM.
`COc1ccc(/N=C2/C(=O)Nc3ccccc32)cc1` yielded a Ki in data set [1] above 10000 nM.
As to `CCC(CC)N1C(=O)/C(=N/c2ccc(C(F)(F)F)cc2)c2ccccc21`, in data set [1], the affinity, expressed as Ki, was 52 nM.
On the same count and under the same terms, to `O=C1Nc2ccccc2/C1=N\c1cccc(C(F)(F)F)c1` belongs 596 nM.
